Measurements from US11203772B2, “Chemoenzymatic synthesis of structurally homogeneous ultra-low molecular weight heparins” (The University of North Carolina at Chapel Hill, priority 2010, dated 2021).

What was measured:
[1] = system: bovine factor Xa; test: Inhibition of factor Xa activity (anti-Xa, chromogenic substrate S-2765, with AT); assay type: biochemical; conditions: with human AT, read-out: IC50 value, in vitro anti-Xa activity
Description: Inhibition effect of the ULMW heparin compounds on the activity of factor Xa. Assays were based on a previously published method (Zhang et al., 2001; Duncan et al., 2004). Briefly, bovine factor Xa (Sigma, St. Louis, Mo., United States of America) was diluted to 5 U/ml with PBS containing 1 mg/ml BSA. Human AT (Cutter Biological) was diluted with PBS containing 1 mg/ml BSA to give a stock solution at the concentration of 27 μM. The chromogenic substrates, S-2765 was from Diapharma and made up at 1 mM in water. The oligosaccharide (ARIXTRA® synthetic ULMW heparin pentasaccharide, ULMW heparin construct 1 and 2) was dissolved in PBS at various concentrations (0.5 to 50 nM). The reaction mixture, which included 25 μl of AT stock solution and 25 μl of the solution containing the sample, was incubated at 37° C. for 2 min. Factor Xa (25 μl) was added. After incubating 37° C. for 4 min, 25 μl of S-2765 was added. The absorbance of the reaction mixture was measured at 405 nm continuously for 10 min. The absorbance values were plotted against the reaction time. The initial reaction rates as a function of concentration were used to calculate the IC50 values.
The activity of Xa was determined by the rate of the increase of the absorbance at 405 nm. The activity without drugs was defined as 100%. […]

[2] = system: factor Xa; conditions: rabbit, in vivo, sc, 120 ug/kg
[3] = system: factor Xa; test: Anticoagulant activity in vivo: anti-Xa activity of rabbit plasma samples; conditions: rabbits, subcutaneous, 120 μg/kg; compared with one another
[4] = target: T1, antithrombin (AT) (Homo sapiens, UniProt P01008); test: Binding to antithrombin (AT) by affinity coelectrophoresis; conditions: affinity co-electrophoresis, 35S-labeled compound
T1 construct: purchased Cutter Biological
T1 sequence (P01008 33-464): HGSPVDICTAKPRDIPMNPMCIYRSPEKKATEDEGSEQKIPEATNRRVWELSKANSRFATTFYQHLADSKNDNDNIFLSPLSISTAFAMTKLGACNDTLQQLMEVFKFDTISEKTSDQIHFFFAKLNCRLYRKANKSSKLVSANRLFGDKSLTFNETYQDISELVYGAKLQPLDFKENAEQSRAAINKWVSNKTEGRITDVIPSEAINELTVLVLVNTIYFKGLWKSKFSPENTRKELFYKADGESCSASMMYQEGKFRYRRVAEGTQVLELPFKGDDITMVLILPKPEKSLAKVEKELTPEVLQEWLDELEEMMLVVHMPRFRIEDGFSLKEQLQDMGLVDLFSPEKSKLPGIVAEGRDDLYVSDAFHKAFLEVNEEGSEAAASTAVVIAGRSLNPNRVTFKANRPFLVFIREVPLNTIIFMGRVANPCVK
Description: The dissociation constant (Kd) of each sample and AT was determined using affinity co-electrophoresis (Lee & Lander, 1991). Approximately 4000-5000 cpm of antithrombin-binding ^35S-labeled ULMW heparin construct 1 or 2 was loaded per lane with zones of AT at concentrations 0, 4, 8, 16, 32, 60, 120, 240 and 500 nM. The gel was performed at 400 mA for 2 hours, dried and analyzed on a Phospholmager Storm 860 (Amersham Biosciences, Uppsala, Sweden). The retardation coefficient was calculated at R=(M0-M)/M0, where M0 is the mobility of the polysaccharide through the zone without AT, and M is the mobility of the sample through each separation zone. The retardation coefficient was then plotted against the retardation coefficient divided by its respective concentration of AT. The slope of the line represents −1/Kd.

| Structure (SMILES) | IC50 [1] [nM] | area under the curve (AUC), anti-Xa activity of plasma samples [2] | pharmacodynamic (PD) profiles [3] | Kd [4] [nM] |
| --- | --- | --- | --- | --- |
| CO[C@H]1O[C@H](COS(=O)(=O)O)[C@@H](O[C@@H]2O[C@@H](C(=O)O)[C@@H](O[C@H]3O[C@H](COS(=O)(=O)O)[C@@H](O[C@@H]4O[C@H](C(=O)O)[C@@H](O[C@H]5O[C@H](COS(=O)(=O)O)[C@@H](O)[C@H](O)[C@H]5NS(=O)(=O)O)[C@H](O)[C@H]4O)[C@H](OS(=O)(=O)O)[C@H]3NS(=O)(=O)O)[C@H](O)[C@H]2OS(=O)(=O)O)[C@H](O)[C@H]1NS(=O)(=O)O [ARIXTRA®, fondaparinux sodium, reference compound] | 3 | 457 | very similar |  |
| O=C(O)C1OC(OC2C(COS(=O)(=O)O)OC(OC3C(C(=O)O)OC(OC4C(COS(=O)(=O)O)OC(OC5C(C(=O)O)OC(OC6C(CO)OC(CO)C6O)C(O)C5O)C(NS(=O)(=O)O)C4O)C(OS(=O)(=O)O)C3O)C(NS(=O)(=O)O)C2OS(=O)(=O)O)C(O)C(O)C1OC1OC(COS(=O)(=O)O)C(O)C(O)C1NS(=O)(=O)O (stereo not shown) [construct 2] | 3.6 | 802 | very similar | 9.1 ± 0.2 |
